Test results reported in PMC11487390, “Design and Synthesis of 1,3-Diarylpyrazoles and Investigation of Their Cytotoxicity and Antiparasitic Profile” (International Journal of Molecular Sciences, 2024).
Where a name gives a salt, the structure may show the parent alone. Read-outs that look alike come from different tables or passages of the source.

Experiments:
[1] = Cytotoxicity assay, MRC-5SV2 cells, resazurin, 3 days; type: cell-based; settings: human, MRC-5SV2 human lung fibroblast cells, MRC-5 cells, highest concentration 64 µM
Protocol: (§1) The series of final products (13–69) was investigated in vitro on the human fetal lung fibroblast cell line MRC-5 (Table 1) to assess cytotoxicity toward normal (i.e., non-malignant) human cells. […] As explained earlier, these are important pathogens for humans or cattle (T. b. brucei) and a persistent need for new therapeutics exists for these parasites. As a part of the antiparasitic tests, cytotoxicity against primary mouse macrophages (PMMs) was also evaluated. These murine cells serve as host cells for parasites in the L. infantum assay. Therefore, the murine macrophage assay not only offers additional cytotoxicological insight but is also essential to interpreting the readout of the L. infantum assay.
(§2) The MRC-5SV2 human lung fibroblast cell line was cultured in MEM + Earle’s salts-medium, supplemented with 2 mM L-glutamine, 16.5 mM NaHCO3, and 5% inactivated fetal calf serum. For evaluating the antileishmanial activity, the L. infantum MHOM/MA(BE)/67 strain was used. This strain was maintained in a Golden hamster (Mesocricetus auratus). Amastigotes were collected from the spleen of an infected donor hamster using differential centrifugation. Primary peritoneal mouse macrophages were used as host cells and were collected 2 days after peritoneal stimulation with a 2% potato starch suspension. For the intracellular T. cruzi assays, the Tulahuen CL2 strain was used that expresses β-galactosidase. The strain was maintained in MRC-5SV2 cells in MEM medium. The T. b. brucei Squib 427 strain or T. b. rhodesiense STIB-900 strain was used for screening against the extracellular African trypanosomes. The strains were maintained in Hirumi’s Modified Iscove’s medium-9 (HMI-9), supplemented with 10% inactivated fetal calf serum. All cultures and assays were performed at 37 °C with 5% CO2.
(§3) Compound stock solutions were prepared in 100% DMSO at 20 mM. The compounds were serially pre-diluted by robotic plate production (4-fold) in DMSO followed by a further (intermediate) dilution in demineralized water to assure a final in-test DMSO concentration of <1%. Identical test plates containing 10 µL of the different concentrations of each compound were produced for the different assays. For the cytotoxicity assays, 5 concentrations per compound were tested (64–16–4–1–0.25 µM). For the parasitic assays, 10 concentrations per compound were tested, ranging from 64 µM to 0.2 nM.
Assays were performed in sterile 96-well microtiter plates, each well containing 10 µL of the watery compound dilutions together with 190 µL of MRC-5SV2 inoculum (1.5 × 10^5 cells/mL). Cell growth was compared to untreated control wells (100% cell growth) and medium-control wells (0% cell growth). After 3 days incubation, MRC-5 viability was assessed fluorimetrically after addition of 50 μL resazurin per well (final concentration of 10 µg mL^−1). After 4 h at 37 °C, fluorescence was measured (λex 550 nm, λem 590 nm). The results were expressed as % reduction in cell growth/viability compared to positive (100% growth–0% inhibition) and negative (0% growth–100% inhibition) control wells from which EC50 values (50% effective concentrations) were derived using an excel macro that calculates the interpolation of the concentrations corresponding to the flanking points, just above and just below 50% inhibition.

[2] = tested on: primary mouse macrophages (PMMs); assay: Cytotoxicity against primary peritoneal mouse macrophages (PMM); type: cell-based; settings: Macrophage
Protocol: as §1, §2
(§4) Primary peritoneal mouse macrophages (PMMs) were prepared in RPMI-1640 medium, supplemented with 2 mM L-glutamine, 16.5 mM NaHCO3, and 5% inactivated fetal calf serum. The macrophages are infected after 48 h with spleen-derived L. infantum amastigotes (3 × 10^4 PMM + 4.5 × 10^5 parasites/well). The compounds were added after 2 h of infection. After 5 days incubation, parasite burdens (mean number of amastigotes/macrophage) were assessed microscopically after staining with a 10% Giemsa solution and EC50 values were calculated.

[3] = tested on: Trypanosoma cruzi Tulahuen CL2 strain; assay: Intracellular T. cruzi assay in MRC-5 cells (β-galactosidase/CPRG, 7 days); type: cell-based; settings: intracellular in MRC-5 cells
Protocol: as §2, §3
MRC-5 cells were infected in 96-well plates using a harvested T. cruzi inoculum (4 × 10^3 MRC-5 cells/well + 4 × 10^4 parasites/well) and exposed to 10 µL of the compound dilutions (200 µL/well total volume). Parasite growth determined after 7 days of incubation and compared to untreated infected controls following the addition of the substrate CPRG (chlorophenolred ß-D-galactopyranoside): 50 µL/well of a stock solution containing 15.2 mg CPRG + 250 µL Nonidet in 100 mL PBS. The absorbance was measured spectrophotometrically at 540 nm after 4 h incubation at 37 °C and EC50 values were calculated.

[4] = tested on: L. infantum MHOM/MA(BE)/67 strain; assay: L. infantum intracellular amastigote assay in PMM (Giemsa, 5 days); type: cell-based, Leishmania infantum
Protocol: as §2, §3, §4

[5] = tested on: T. b. brucei Squib 427 strain; assay: T. b. brucei growth assay (resazurin, 3 days); type: cell-based, Trypanosoma brucei brucei
Protocol: as §2, §3
(§5) Parasite suspensions (1.5 × 10^4 T. b. brucei/well or 4 × 10^3 T. b. rhodesiense/well) in HMI-9 medium were exposed in a total volume of 200 µL to 10 µL of the compound dilutions Parasite growth was assessed fluorimetrically after 3 days of incubation by the addition of 50 µL resazurin per well. After 6 h (T. b. rhodesiense) or 24 h (T. b. brucei) at 37 °C, fluorescence was measured (λex 550 nm, λem 590 nm), from which viability and EC50 values could be determined.

[6] = tested on: T. b. rhodesiense STIB-900 strain; assay: T. b. rhodesiense growth assay (resazurin, 3 days); type: cell-based, Trypanosoma brucei rhodesiense
Protocol: as §2, §3, §5

[7] = Trypanosoma cruzi, TULAHUEN, MRC5, 168 h
[8] = Leishmania infantum, 120 h, amastigotes in PMM, 5 days, read-out: L. inf. (EC50)
[9] = Trypanosoma brucei, 72 h, 3 days, read-out: T. b. bruc. (EC50)
[10] = Trypanosoma brucei, RHODESIENSE, 72 h, 3 days, read-out: T. b. rhod. (EC50)
[11] = amastigotes in PMM, 5 days, read-out: L. inf. (EC50)
[12] = Leishmania infantum, 120 h, read-out: L. inf. (EC50, µM), amastigotes in PMM, 5 days
[13] = Trypanosoma brucei, 72 h, read-out: T. b. bruc. (EC50, µM), 3 days
[14] = Trypanosoma brucei, RHODESIENSE, 72 h, read-out: T. b. rhod. (EC50, µM), 3 days

## c1ccc(NCc2cn(-c3ccccc3)nc2-c2ccc3c(c2)OCCO3)cc1 [Compound 13, N-((3-(2,3-dihydrobenzo[b][1,4]dioxin-6-yl)-1-phenyl-1H-pyrazol-4-yl)methyl)aniline]
[1]
  EC50 at 3 days: > 64 µM
[2]
  EC50: > 64 µM
[3]; [7]
  EC50: 2.23 µM
[4]; [8]
  EC50: 10.8 µM
[5]; [9]
  EC50: 31.4 µM
[6]; [10]
  EC50: 7.32 µM

## Fc1ccc(NCc2cn(-c3ccccc3)nc2-c2ccc3c(c2)OCCO3)cc1 [Compound 14, N-((3-(2,3-dihydrobenzo[b][1,4]dioxin-6-yl)-1-phenyl-1H-pyrazol-4-yl)methyl)-4-fluoroaniline]
[1]
  EC50 at 3 days: > 64 µM
[2]
  EC50: > 64 µM
[4]; [8]
  EC50: < 10 µM
[4]; [11]
  EC50: 6.96 µM
[5]; 3 days, read-out: T. b. bruc. (EC50)
  EC50: 8.18 µM
[5]; [9]
  EC50: < 10 µM
[6]; 3 days, read-out: T. b. rhod. (EC50)
  EC50: 6.35 µM
[6]; [10]
  EC50: < 10 µM

## CNC(=O)c1ccc(NCc2cn(-c3ccccc3)nc2-c2ccc3c(c2)OCCO3)cn1 [Compound 18, 5-(((3-(2,3-dihydrobenzo[b][1,4]dioxin-6-yl)-1-phenyl-1H-pyrazol-4-yl)methyl)amino)-N-methylpicolinamide]
[1]
  EC50 at 3 days: 49.9 µM
[2]
  EC50: 32 µM
[3]; [7]
  EC50: > 64 µM
[4]; [8]
  EC50: 9.19 µM
[5]; [9]
  EC50: > 64 µM
[6]; [10]
  EC50: > 64 µM

## c1ccc(-n2cc(CNCCc3ccncc3)c(-c3ccc4c(c3)OCCO4)n2)cc1 [Compound 19, N-((3-(2,3-dihydrobenzo[b][1,4]dioxin-6-yl)-1-phenyl-1H-pyrazol-4-yl)methyl)-2-(pyridin-4-yl)ethan-1-amine hydrochloride]
[1]
  EC50 at 3 days: 20.2 µM
[2]
  EC50: 32 µM
[3]; [7]
  EC50: 7.46 µM
[4]; [12]
  EC50: 20.3 µM
[5]; [13]
  EC50: 6.27 µM
[6]; [14]
  EC50: 1.72 µM

## c1ccc(-n2cc(CNCCc3ccccn3)c(-c3ccc4c(c3)OCCO4)n2)cc1 [Compound 21, N-((3-(2,3-dihydrobenzo[b][1,4]dioxin-6-yl)-1-phenyl-1H-pyrazol-4-yl)methyl)-2-(pyridin-2-yl)ethan-1-amine hydrochloride]
[1]
  EC50 at 3 days: 29.1 µM
[2]
  EC50: 32 µM
[3]; [7]
  EC50: < 10 µM
[3]
  EC50: 7.31 µM
[4]; [12]
  EC50: < 10 µM
[4]; read-out: L. inf. (EC50), amastigotes in PMM, 5 days
  EC50: 5.06 µM

## CNC(=O)c1cc(Oc2ccc(NCc3cn(-c4ccccc4)nc3-c3ccc4c(c3)OCCO4)cc2)ccn1 [Compound 22, 4-(4-(((3-(2,3-dihydrobenzo[b][1,4]dioxin-6-yl)-1-phenyl-1H-pyrazol-4-yl)methyl)amino)phenoxy)-N-methylpicolinamide]
[1]
  EC50 at 3 days: > 64 µM
[2]
  EC50: > 64 µM
[3]; [7]
  EC50: > 64 µM
[4]; [8]
  EC50: > 64 µM
[5]; [9]
  EC50: 2.22 µM
[6]; T. b. rhodesiense versus cytotoxicity
  selectivity index: 86
[6]; [10]
  EC50: 0.74 µM

## c1ccc(-n2cc(CNCCN3CCOCC3)c(-c3ccc4c(c3)OCCO4)n2)cc1 [Compound 28, N-((3-(2,3-dihydrobenzo[b][1,4]dioxin-6-yl)-1-phenyl-1H-pyrazol-4-yl)methyl)-2-morpholinoethan-1-amine dihydrochloride]
[1]
  EC50 at 3 days: 29.4 µM
[2]
  EC50: 32 µM
[3]; [7]
  EC50: 30.3 µM
[4]; [12]
  EC50: 32.5 µM
[5]; [13]
  EC50: 7.08 µM
[6]; [14]
  EC50: 6.27 µM

## O=C(Nc1ccc(F)cc1)c1cn(-c2ccccc2)nc1-c1ccc2c(c1)OCCO2 [Compound 31, 3-(2,3-dihydrobenzo[b][1,4]dioxin-6-yl)-N-(4-fluorophenyl)-1-phenyl-1H-pyrazole-4-carboxamide]
[1]
  EC50 at 3 days: > 64 µM
[2]
  EC50: > 64 µM
[3]; [7]
  EC50: 7.38 µM
[4]; [8]
  EC50: > 64 µM
[5]; [9]
  EC50: 6.73 µM
[6]; [10]
  EC50: 3.12 µM

## O=C(NCc1ccccc1)c1cn(-c2ccccc2)nc1-c1ccc2c(c1)OCCO2 [Compound 32, N-benzyl-3-(2,3-dihydrobenzo[b][1,4]dioxin-6-yl)-1-phenyl-1H-pyrazole-4-carboxamide]
[1]
  EC50 at 3 days: > 64 µM
[2]
  EC50: > 64 µM
[3]; [7]
  EC50: 6.79 µM
[4]; [8]
  EC50: 12.7 µM
[5]; [9]
  EC50: 24.1 µM
[6]; [10]
  EC50: 4.86 µM

## O=C(NCc1ccc(F)cc1)c1cn(-c2ccccc2)nc1-c1ccc2c(c1)OCCO2 [Compound 33, 3-(2,3-dihydrobenzo[b][1,4]dioxin-6-yl)-N-(4-fluorobenzyl)-1-phenyl-1H-pyrazole-4-carboxamide]
[1]
  EC50 at 3 days: 64 µM
[2]
  EC50: > 64 µM
[3]; [7]
  EC50: > 64 µM
[4]; [8]
  EC50: 8.3 µM
[4]; [11]
  EC50: 9.51 µM
[5]; [9]
  EC50: > 64 µM
[6]; [10]
  EC50: 4.23 µM

## O=C(NCCc1ccncc1)c1cn(-c2ccccc2)nc1-c1ccc2c(c1)OCCO2 [Compound 35, 3-(2,3-dihydrobenzo[b][1,4]dioxin-6-yl)-1-phenyl-N-(2-(pyridin-4-yl)ethyl)-1H-pyrazole-4-carboxamide]
[1]
  EC50 at 3 days: > 64 µM
[2]
  EC50: > 64 µM
[3]; [7]
  EC50: 4.33 µM
[4]; [8]
  EC50: > 64 µM
[5]; [9]
  EC50: 23.2 µM
[6]; [10]
  EC50: 1.28 µM

## O=C(NCCc1cccnc1)c1cn(-c2ccccc2)nc1-c1ccc2c(c1)OCCO2 [Compound 36, 3-(2,3-dihydrobenzo[b][1,4]dioxin-6-yl)-1-phenyl-N-(2-(pyridin-3-yl)ethyl)-1H-pyrazole-4-carboxamide]
[1]
  EC50 at 3 days: 45 µM
[2]
  EC50: > 64 µM
[3]; [7]
  EC50: 4.56 µM
[4]; [8]
  EC50: 45.2 µM
[5]; [9]
  EC50: 19.4 µM
[6]; [10]
  EC50: 4 µM

## O=C(NCCc1ccccn1)c1cn(-c2ccccc2)nc1-c1ccc2c(c1)OCCO2 [Compound 37, 3-(2,3-dihydrobenzo[b][1,4]dioxin-6-yl)-1-phenyl-N-(2-(pyridin-2-yl)ethyl)-1H-pyrazole-4-carboxamide]
[1]
  EC50 at 3 days: 32 µM
[2]
  EC50: > 64 µM
[3]; [7]
  EC50: 13.1 µM
[4]; [8]
  EC50: > 64 µM
[5]; [9]
  EC50: 20.2 µM
[6]; [10]
  EC50: 2.96 µM

## c1ccc(-n2cc(CNCCN3CCCC3)c(-c3ccc4c(c3)OCCO4)n2)nc1 [Compound 69, N-((3-(2,3-dihydrobenzo[b][1,4]dioxin-6-yl)-1-(pyridin-2-yl)-1H-pyrazol-4-yl)methyl)-2-(pyrrolidin-1-yl)ethan-1-amine dihydrochloride]
[1]
  EC50 at 3 days: > 64 µM
[3]; [7]
  EC50: > 64 µM
[4]; [12]
  EC50: > 64 µM
[5]; [13]
  EC50: 22.7 µM
[6]; [14]
  EC50: 24.8 µM
